Experimental data reported in patent publication US8242166B2, “C(10) ethyl ester and C(10) cyclopropyl ester substituted taxanes” (Florida State University Research Foundation, Inc., priority 2008, dated 2012).
Values joined by “and” are separate entries in the source; they are usually repeats but may differ in a detail not shown here. Equal entries are not always repeated. Where two headings read alike, the source gives them in different places.

Tests used:
[1] = test system: HCT116; experiment: MTT cytotoxicity (IC50), HCT116; assay type: cell-based; details: Homo sapiens, HCT-116, 72 h, read-out: IN Vitro IC50 (nm) HCT116
Method: (§1) All cell lines were maintained in RPMI-1640 tissue culture medium (TCM, supplemented with antibiotics and 10% fetal bovine serum) and cultured at 37° C. in humidified air containing 5% CO2. To assess the antiproliferative effects of the test compounds, 172 μL of tumor cell suspension (1.45×10^4 cells/ml) were added to each well of a 96-well plate and incubated for 24 h at 37° C. in 5% CO2 in air to allow cells to adhere. Seven 2-fold drug dilutions in TCM/DMSO were performed in triplicate in separate 96-well plates and 28 μL was transferred to the wells containing tumor cells (200 μL final volume/0.1% DMSO). Plates were incubated for 72 h and cell viability was determined by adding 50 μL of warm TCM containing 5 mg/mL MTT (3-[4,5-dimethylthiazol-2-yl]-2,5-diphenyltetrazolium bromide) to each well and incubating for 1 h at 37° C. Plates were processed and the absorbances of the resulting solutions were measured by a plate reader at 570 nm. […] (GraphPad Prism version 4.00 for Windows). Studies were conducted by Taxolog, Inc., Tallahassee, Fla.

[2] = test system: DLD-1; experiment: MTT cytotoxicity (IC50), DLD-1; assay type: cell-based; details: Homo sapiens
Method: as §1, with “Compound 17932 was tested in four of these cell lines, while the remaining compounds were tested in all of these cell lines. All” for “All”

[3] = test system: TK-10; experiment: MTT cytotoxicity (IC50), TK-10; assay type: cell-based; details: Homo sapiens, 72 h, read-out: IN Vitro IC50 (nm) TK10
Method: as §1, with “Compound 17932 was tested in four of these cell lines, while the remaining compounds were tested in all of these cell lines. All” for “All”

[4] = test system: HT29 human tumor xenografts; experiment: HT29 xenograft study e139 (Example 23); assay type: in vivo, nude mice
[5] = test system: HT29 human tumor xenografts; experiment: HT29 xenograft study e210, oral and i.v. (Example 25); details: 25 mg/kg iv qwk × 3
From the text: (§2) The formulation for oral studies was an ethanol and Cremophor formulation while the formulation for compound 18365 and compound 19244 dosed i.v. was 5% ethanol and 95% Liposyn II 20%.

[6] = test system: HT29 human tumor xenografts; experiment: HT29 xenograft study e212, oral and i.v. (Example 26); details: 25 mg/kg iv qwk × 3
From the text: as §2

[7] = test system: human A375 melanoma xenograft; experiment: A375 xenograft study e209 (Example 27); details: 25 mg/kg iv qwk × 3
Method: The endpoint was a tumor volume of 2,000 mm^3 and the study was terminated on Day 56. Efficacy was assessed by tumor growth delay and the number of partial and complete regressions. Animals with a CR that persisted through Day 56 were classified as long-term tumor-free survivors (TFS).

[8] = test system: human MX-1 breast carcinoma; experiment: MX1 xenograft study e219R1, i.v. single dose (Example 17)

## CC(=O)O[C@@]12CO[C@@H]1C[C@H](O)[C@@]1(C)C(=O)[C@H](O)C3=C(C)[C@@H](OC(=O)[C@H](O)[C@@H](NC(=O)OC(C)(C)C)c4ccccc4)C[C@@](O)([C@@H](OC(=O)c4ccccc4)[C@H]21)C3(C)C [Docetaxel, docetaxel, reference compound]
[1]
  IC50: 0.9 nM
[2]; MTT, 72 h, read-out: IN Vitro IC50 (nm) DLD1
  IC50: > 10 nM
[2]; Resistance MDR1+, read-out: DLD1 Colon (Table 4, quantity not named; IC50 values as Table 2)
  IC50: 20 nM
[3]
  IC50: 1.4 nM
[4]; 25 mg/kg iv q7d × 3
  Day 54 mm^3 (tumor size): 180.6 mm^3
  Max. BW Loss %; Day: −14.4%; Day 19
[4]; 25 mg/kg iv q7d × 3, N=6
  Number of Death NTR: 0
  Number of Death TR: 0
[4]; 25 mg/kg q7d×3
  TGD: 210%
  group mean body-weight (BW) loss: 14.4%
[4]; 25 mg/kg q7d×3, five mice
  MTV (Day 61): 196 mm^3
[4]; 25 mg/kg q7d×3, six mice
  LTTFS: 1
  PR responses: 5
[5]
  % TGD: 214.3%
  MTV (n), Day 60: 40.00 (6) mm^3
  Median TTE: 60 days
  T-C: 40.91 days
[5]; n=6
  CR (complete regression): 4
  NTR NTRm: 0
  PR (partial regression): 2
  TFS (tumor-free survivor): 2
  TR (treatment-related death): 0
[6]; n=6
  CR (complete regression): 0
  NTR NTRm: 0
  PR (partial regression): 3
  TFS (tumor-free survivor): 0
  TR (treatment-related death): 0
[6]; vehicle ET
  % TGD: 237.14%
  MTV (n), Day 59: 600.00 (6) mm^3
  Median TTE: 59 days
  T-C: 41.5 days
[7]
  BW Nadir: −4.0% (25)
[7]; n=6
  CR (complete regression): 0
  NTR NTRm: 0
  PR (partial regression): 0
  TFS (tumor-free survivor): 0
  TR (treatment-related death): 0
[7]; vehicle ET
  % TGD: 49.06%
  Median TTE: 26.92 days
[7]; vehicle ET, listed as 2
  T-C (tumor growth delay): 8.9 days and 8.86 days
[8]; 25 mg/kg iv qd × 1
  % TGD: 89.79%
  BW Nadir: −10.2% (5)
  MTV (n), Day 60: 0.00 (5) mm^3
  Median TTE: 61 days
  T-C: 28.86 days
[8]; 25 mg/kg iv qd × 1, n=5
  CR (complete regression): 5
  NTR (non-treatment-related death): 0
  PR (partial regression): 0
  TFS (tumor-free survivor): 4
  TR (treatment-related death): 0
[8]; 25 mg/kg qd×1
  group mean weight loss: 10.2%
[8]; 25 mg/kg qd×1, n=5
  transient CR: 1
